One may read the IC50 as the point on the concentration scale where inhibition reaches its midpoint.

We go through eleven molecules from patent publication US20230406864A1, “7-AZOLE SUBSTITUTED 2-AMINOQUINAZOLINE INHIBITORS OF HPK1” (MERCK SHARP & DOHME LLC, priority 2020, published 2023).

The assay deals with T1, Human HPK1, catalytic domain (Homo sapiens, UniProt Q92918).
T1 construct: purchased Cama (so in the source)
T1 sequence (Q92918 1-346): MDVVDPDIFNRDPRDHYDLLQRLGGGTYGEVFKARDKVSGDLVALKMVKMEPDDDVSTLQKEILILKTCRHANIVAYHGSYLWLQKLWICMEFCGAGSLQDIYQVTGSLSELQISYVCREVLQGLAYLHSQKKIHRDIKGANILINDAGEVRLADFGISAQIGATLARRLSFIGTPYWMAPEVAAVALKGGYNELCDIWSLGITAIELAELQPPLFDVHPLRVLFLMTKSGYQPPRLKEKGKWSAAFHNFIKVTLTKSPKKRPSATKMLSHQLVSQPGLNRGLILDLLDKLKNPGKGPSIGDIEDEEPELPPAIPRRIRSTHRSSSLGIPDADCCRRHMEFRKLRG
As to the kind of experiment: HPK1-SLP76 TR-FRET assay. Type of assay: biochemical. To be noted: HPK1 kinase domain 0.075 nM; full length SLP-76 10 nM; ATP 10 μM; 30 min preincubation; 60 min reaction; room temperature. On the technique in general: TR-FRET usually uses a lanthanide donor and a delayed reading to cut background.
Turning to `Cc1c(-c2cc3nc(Nc4cnn(CC(F)(F)F)c4)ncc3c(N)c2F)cnc2c1NCCO2` [Example 2-7, 6-fluoro-7-(8-methyl-2,3-dihydro-1H-pyrido[2,3-b][1,4]oxazin-7-yl)-N~2~-[1-(2,2,2-trifluoroethyl)-1H-pyrazol-4-yl]quinazoline-2,5-diamine], the IC50 worked out at 0.26 nM. This counts as sub-nanomolar.

Take `Cc1c(-c2cc3nc(Nc4cnn(C5CCN(C6(C)COC6)CC5)c4)ncc3c(N)c2F)cnc2c1NCCO2` [Example 2-3, 6-fluoro-7-(8-methyl-2,3-dihydro-1H-pyrido[2,3-b][1,4]oxazin-7-yl)-N~2~-{1-[1-(3-methyloxetan-3-yl)piperidin-4-yl]-1H-pyrazol-4-yl}quinazoline-2,5-diamine]: 0.12 nM corresponded to half-maximal inhibition (IC50).

In turn, `Cc1c(-c2cc3nc(Nc4cnn(C5CC6(CNC6)C5)c4)ncc3c(N)c2F)cnc2c1NCCO2` [Example 2-4, N~2~-[1-(2-azaspiro[3.3]heptan-6-yl)-1H-pyrazol-4-yl]-6-fluoro-7-(8-methyl-2,3-dihydro-1H-pyrido[2,3-b][1,4]oxazin-7-yl)quinazoline-2,5-diamine] had a half-inhibitory concentration (IC50) of 0.47 nM.

For the molecule `Cc1c(-c2ccc3cnc(Nc4cc5n(n4)CCN(C(C)C)C(=O)C5)nc3c2)cnc2c1NCCO2` [Example 1-7, 2-{[7-(8-methyl-2,3-dihydro-1H-pyrido[2,3-b][1,4]oxazin-7-yl)quinazolin-2-yl]amino}-6-(propan-2-yl)-7,8-dihydro-4H-pyrazolo[1,5-d][1,4]diazepin-5(6H)-one], the IC50 was 0.34 nM.

The molecule `Cc1c(-c2cc3nc(Nc4cnn(C5COC5)c4)ncc3c(N)c2F)cnc2c1NCCO2` [Example 2-39, 6-fluoro-7-(8-methyl-2,3-dihydro-1H-pyrido[2,3-b][1,4]oxazin-7-yl)-N~2~-[1-(oxetan-3-yl)-1H-pyrazol-4-yl]quinazoline-2,5-diamine] came in with an IC50 of 0.051 nM. This IC50 is about 6.7-fold lower than that of the molecule before.

The molecule `Cc1c(-c2cc3nc(Nc4cnn(C(C)C)c4)ncc3c(N)c2F)cnc2c1NCCO2` [Example 2-14, 6-fluoro-7-(8-methyl-2,3-dihydro-1H-pyrido[2,3-b][1,4]oxazin-7-yl)-N~2~-[1-(propan-2-yl)-1H-pyrazol-4-yl]quinazoline-2,5-diamine] yielded an IC50 of 0.16 nM.

Molecule `COC(=O)C12CC(n3cc(Nc4ncc5c(N)c(F)c(-c6cnc7c(c6C)NCCO7)cc5n4)cn3)(C1)C2` [Example 2-15, methyl 3-(4-{[5-amino-6-fluoro-7-(8-methyl-2,3-dihydro-1H-pyrido[2,3-b][1,4]oxazin-7-yl)quinazolin-2-yl]amino}-1H-pyrazol-1-yl)bicyclo[1.1.1]pentane-1-carboxylate] displayed an IC50 of 0.22 nM.

Turning to `Cc1c(-c2cc3nc(Nc4cnn(CC(C)C)c4)ncc3c(N)c2F)cnc2c1NCCO2` [Example 2-13, 6-fluoro-7-(8-methyl-2,3-dihydro-1H-pyrido[2,3-b][1,4]oxazin-7-yl)-N~2~-[1-(2-methylpropyl)-1H-pyrazol-4-yl]quinazoline-2,5-diamine], the IC50 amounted to 0.77 nM.

Regarding `Cc1c(-c2cc3nc(Nc4cnn(CC(F)F)c4)ncc3c(N)c2F)cnc2c1NCCO2` [Example 2-32, N~2~-[1-(2,2-difluoroethyl)-1H-pyrazol-4-yl]-6-fluoro-7-(8-methyl-2,3-dihydro-1H-pyrido[2,3-b][1,4]oxazin-7-yl)quinazoline-2,5-diamine], half-maximal inhibition (IC50) required 0.054 nM.

Consider `Cc1c(-c2cc3nc(Nc4cnn(CC(C)(C)O)c4)ncc3c(N)c2F)cnc2c1NCCO2` [Example 2-24, 1-(4-{[5-amino-6-fluoro-7-(8-methyl-2,3-dihydro-1H-pyrido[2,3-b][1,4]oxazin-7-yl)quinazolin-2-yl]amino}-1H-pyrazol-1-yl)-2-methylpropan-2-ol], for which the midpoint of inhibition, the IC50, lay at 1.1 nM.

In the case of `Cc1c(-c2cc3nc(Nc4cnn(C5CCNCC5)c4)ncc3c(N)c2F)cnc2c1NCCO2` [Example 2-11, 6-fluoro-7-(8-methyl-2,3-dihydro-1H-pyrido[2,3-b][1,4]oxazin-7-yl)-N~2~-[1-(piperidin-4-yl)-1H-pyrazol-4-yl]quinazoline-2,5-diamine], the midpoint of inhibition, the IC50, lay at 0.071 nM.
